The results in this text go back to the METLIN SMRT retention time set (Domingo-Almenara et al. 2019).

The data set can be described thus: gradient 5% acetonitrile 3 min, to 50% in 2 min, to 85% in 15 min, held 3 min, 100 µL/min. The note with it: column: Zorbax Extend-C18 2.1 x 50 mm; eluents: water / acetonitrile, 0.1% formic acid. In a few lines:
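Over 3 months, pure standards in mixtures of ~100 molecules were run by HPLC coupled to a quadrupole time-of-flight mass spectrometer in positive and negative ionization mode. The column was a Zorbax Extend-C18 (2.1 × 50 mm, 1.8 μm) at 100 μL/min, eluted with water and acetonitrile each holding 0.1% formic acid, with 40 μL dead and 900 μL dwell volumes. Retention time was determined from adduct peaks chosen by software and checked manually.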
The compound `Cc1nc(-c2noc(-c3ccccc3)n2)cn1CC(=O)Nc1cccc(Cl)c1` had an RP-LC retention time of 916 s. `Cc1cc(N2CCN(C(=O)CCCc3c[nH]c4ccccc34)CC2)nc2ccccc12` displayed an RP-LC retention time of 696 s. In turn, `CCOc1cc(S(=O)(=O)Nc2ncccc2C)ccc1Br` had an RP-LC retention time of 666 s. As to `Cc1nn(C)cc1C(=O)N(Cc1ccccc1)c1ccccn1`, the RP-LC retention time was 674 s.

`COc1ccccc1N1CCN(C(=O)C2CCCN(c3cnc4nccnc4c3)C2)CC1` (centres undefined) gave an RP-LC retention time of 688 s.

For the compound `COc1ccccc1NS(=O)(=O)c1cc2n(c1)CCN(C(C)C)C2=O`, the RP-LC retention time is 733 s. In turn, `O=C(Cc1ccsc1)N1CCc2nn(CC3CC3)c(=O)n2CC1` had an RP-LC retention time of 674 s. The compound `Cn1cnc2cc(CNC(=O)C3CCCC3)ccc21` had an RP-LC retention time of 586 s. Compound `COC[C@@H]1CN(C(=O)c2ccoc2C)C[C@H]1c1nc(C)no1` came in with an RP-LC retention time of 539 s. As to `COC1CCOC2(CCN(C(=O)c3ccoc3)CC2)C1` (centres undefined), the RP-LC retention time is 652 s.

Turning to `CC(=O)c1ccc(N2CCN(C(=O)CN3C(=S)NC(C)(C)CC3C)CC2)cc1` (centres undefined), the RP-LC retention time came to 716 s. For `O=C(CCC[C@@H]1[C@H]2CCCN3CCC[C@@H](CN1C(=O)c1cc(F)cc(F)c1)[C@@H]23)N1CCOCC1`, the RP-LC retention time turned out to be 605 s.

As for `Cc1nc2c(c(=O)n1CC(=O)NCc1cccs1)CCN(Cc1ccccc1)C2`, the RP-LC retention time turned out to be 608 s. In the case of `COC(=O)c1ccc(NC(=O)Cn2cnc3nc(N4CCCC4)ncc3c2=O)cc1` it was 690 s; in that of `COC(=O)c1ccccc1NC(=O)C1CCCN(c2nnc(C)c3c(C)n(-c4ccccc4)nc23)C1` (centres undefined), 834 s. `COc1ccc(Cl)cc1NC(=O)Nc1c(-c2ccncc2)nc2ccccn12` yielded an RP-LC retention time of 642 s. Consider `COc1ccccc1-c1noc(-c2nnn3c2COC(c2ccc(F)cc2)C3)n1` (centres undefined), for which the RP-LC retention time was 1040 s. `O=C(C1CCCN(S(=O)(=O)c2ccc(-c3ccn[nH]3)o2)C1)N1CCN(c2ccccn2)CC1` (centres undefined) gave an RP-LC retention time of 607 s. In turn, `O=C(NC1CCCCCC1)C1CCCN(C(=O)Cc2cccc3ccccc23)C1` (centres undefined) returned an RP-LC retention time of 983 s.

`COC(=O)c1ccc(-c2nc3cnccn3c2Nc2ccccc2C)cc1` showed an RP-LC retention time of 906 s. Regarding `Cc1oc(-c2ccc(C(=O)NCCCN3CCCC3)cc2)nc1COc1ccccc1`, the RP-LC retention time was 715 s.

`Cn1nccc1C(=O)N1CCc2cc(-c3csc(C4CC4)n3)ccc21` returned an RP-LC retention time of 990 s. Take `Cc1nc(-c2cc(S(=O)(=O)NCC(=O)NCc3ccccc3Cl)c(C)s2)no1`: the RP-LC retention time stood at 870 s. The result for `O=C(NCC1CCCO1)c1ccccc1NC(=O)C1CCN(C(=O)c2ccc(F)cc2)CC1` (centres undefined) reads 762 s. Compound `Cc1cc2c(c(=O)n(-c3ccccc3)c(=O)n2CC(=O)Nc2cccc(Cl)c2)n1C` yielded an RP-LC retention time of 870 s. For the compound `COc1ccc(CC(=O)N(C)CC2(C)CCOCC2)cc1Cl`, the RP-LC retention time turned out to be 818 s.

Turning to `COc1ccc(CCS(=O)(=O)NCC2CCN(C(=O)Oc3ccccc3)CC2)cc1`, the RP-LC retention time worked out at 888 s. In turn, `O=C(C1CC(=O)N(c2ccccc2)C1)N1CCC2(CC1)OCCS2` (centres undefined) came in with an RP-LC retention time of 682 s. `NC(=O)Cc1ccc2c(c1)[nH]c1ccccc12` displayed an RP-LC retention time of 756 s.

Regarding `CCC1Oc2ccc(S(=O)(=O)N3CCC(C(=O)NCc4ccco4)CC3)cc2NC1=O` (centres undefined), the RP-LC retention time came out at 795 s. In turn, `CCN(CC)CCNC(=O)CN1CC(C)Sc2ccccc21` (centres undefined) registered an RP-LC retention time of 656 s.

In the case of `CCc1ccc(C2=C(C)C(N3CCC(NC(=O)CCOC)CC3)=NS2(=O)=O)cc1`, the RP-LC retention time stood at 761 s. Take `CCn1c(N2CCCC(C(=O)Nc3cc(OC)cc(OC)c3)C2)cc(=O)n(C)c1=O` (centres undefined): the RP-LC retention time worked out at 829 s. The result for `CC1=C(c2ccc(F)cc2)S(=O)(=O)N=C1N1CCCN(C(=O)c2ccco2)CC1` reads 764 s; that for `O=C(Nc1ccccc1)N1CC(n2ccnc2)C1`, 569 s; that for `O=C1CCc2cc(NC(=O)c3cccnc3)ccc2N1`, 579 s. `Cc1ccc(NC(=O)C2CCCN(S(=O)(=O)c3c[nH]c(C(=O)N4CCCC4)c3)C2)cc1F` (centres undefined) showed an RP-LC retention time of 859 s. In the case of `CCN1CCN(c2cc(C)c3cc(NC(=O)CCC4CCCC4)ccc3n2)CC1` it was 620 s. The compound `COc1ccc(-c2nnc(-c3cc(S(=O)(=O)NCc4ccco4)ccc3Cl)o2)cc1` registered an RP-LC retention time of 964 s.

Compound `CC(C)c1ccc2c(c1)-c1ccccc1S(=O)(=O)N2CC(=O)N1CC(=O)Nc2ccccc21` returned an RP-LC retention time of 927 s. The compound `CNC(=O)[C@@H]1C[C@H](Oc2ccccc2)CN1S(=O)(=O)N(C)C` yielded an RP-LC retention time of 702 s.

Compound `COC[C@@H]1CN(Cc2ccc3[nH]ccc3c2)C[C@H]1c1ccncc1` yielded an RP-LC retention time of 581 s. The compound `O=C(Cc1ccc(Cl)cc1)N1CCN(c2ccc(Nc3ccccn3)nn2)CC1` registered an RP-LC retention time of 603 s. In turn, `O=C(NCCOc1ccccc1)Nc1ccc(OC(F)(F)F)cc1` had an RP-LC retention time of 910 s. On to `CCOCC(=O)N1C[C@@H]2CCCN3CCC[C@@H]([C@H]23)[C@H]1CCCC(=O)NCC1CC1`, for which the RP-LC retention time is 574 s. Compound `CC(C)c1noc(-c2ccnc(-n3cnc(C(=O)NCC4CC4)c3)c2)n1` had an RP-LC retention time of 879 s. In the case of `COc1ccccc1NC(=O)N1CCC(n2c(C(F)(F)F)nc3cccnc32)CC1`, the RP-LC retention time turned out to be 898 s. Regarding `O=C(CS(=O)Cc1cnn(-c2ccccc2)c1-n1cccc1)NCc1ccccc1` (centres undefined), the RP-LC retention time came out at 797 s. The compound `CC1CCN(C(=O)c2cn(-c3cc(-c4nc(C(C)C)no4)ccn3)cn2)CC1` came in with an RP-LC retention time of 640 s. Compound `Cc1ccccc1Cc1c(C)nc2nc(SCC(=O)NCCCN3CCOCC3)nn2c1C` came in with an RP-LC retention time of 643 s. In the case of `Clc1cccc(Nc2c(-c3ccccc3)nc3cnccn23)c1` it was 921 s. In the case of `CCOC(=O)c1cn(-c2c(F)c(F)c(C#N)c(F)c2F)c2c(F)c(F)c(F)cc2c1=O` it was 981 s; in that of `CCc1nnc2sc(-c3cc(C)nc4ccc(Br)cc34)nn12`, 892 s; in that of `Cc1cc(C)cc(NS(=O)(=O)c2cc(-c3nc(C)cs3)cs2)c1`, 1010 s. In turn, `O=C(NCCc1cccs1)c1nnc(-c2ccc(S(=O)(=O)N3CCCCC3)cc2)o1` showed an RP-LC retention time of 977 s.

Turning to `Cc1nn(CC(=O)N2CCC(C)CC2)c(=O)c2c(-n3cccc3)n(-c3ccc(Cl)cc3)nc12`, the RP-LC retention time came out at 1130 s. The result for `Cc1nc(-c2ccc(S(=O)(=O)N3CCc4ccccc4C3)cc2)co1` reads 1020 s; that for `Cn1cc(C2=CCN(S(=O)(=O)c3ccc(F)c(F)c3)CC2)c2cccnc21`, 981 s; that for `CCC(CC)N1CCN(C(=O)c2nc(N3CCSCC3)c3cn(C)nc3n2)CC1`, 574 s.
